# PubChem BioAssay AID330 (DTP/NCI, 2004)
# Several values for one entry are separate records, joined by “and”; a condition that tells them apart may be missing. Equal values may be shown once. Inconclusive results and toxic doses are left out.
# Test system: P388 leukemia ip, CD2F1 mice, survival T/C
# Test: NCI In Vivo Anticancer Drug Screen. Data for tumor model P388 Leukemia (intraperitoneal) in CD2F1 (CDF1) mice
# Conditions: endpoint: median survival time, higher = longer survival
# How it was run: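 Mice carrying the transplanted tumor received test compound or vehicle. Survival was recorded in each group, and the value is the treated-group measurement divided by that of the vehicle-treated control group.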
# [1] = dose: 6.25 mg/kg/injection, schedule: Q01DX005 (ip), vehicle: saline
# [2] = dose: 12.5 mg/kg/injection, schedule: Q01DX005 (ip), vehicle: saline
# [3] = dose: 25.0 mg/kg/injection, schedule: Q01DX005 (ip), vehicle: saline
# [4] = dose: 50.0 mg/kg/injection, schedule: Q01DX005 (ip), vehicle: saline
# [5] = dose: 60.0 mg/kg/injection, schedule: Q01DX005 (ip), vehicle: saline with Tween-80
# [6] = dose: 120.0 mg/kg/injection, schedule: Q01DX005 (ip), vehicle: saline with Tween-80
# [7] = dose: 50.0 mg/kg/injection, schedule: Q04DX003 (ip), vehicle: saline with Tween-80
# [8] = dose: 100.0 mg/kg/injection, schedule: Q04DX003 (ip), vehicle: saline with Tween-80
# [9] = dose: 200.0 mg/kg/injection, schedule: Q04DX003 (ip), vehicle: saline with Tween-80
# [10] = dose: 400.0 mg/kg/injection, schedule: Q01DX001 (ip), vehicle: saline
# [11] = dose: 400.0 mg/kg/injection, schedule: Q04DX003 (ip), vehicle: saline with Tween-80
# [12] = dose: 50.0 mg/kg/injection, schedule: Q01DX009 (ip), vehicle: Klucel (hydroxypropylcellulose) (HPC)
# [13] = dose: 100.0 mg/kg/injection, schedule: Q01DX009 (ip), vehicle: Klucel (hydroxypropylcellulose) (HPC)
# [14] = dose: 200.0 mg/kg/injection, schedule: Q01DX009 (ip), vehicle: Klucel (hydroxypropylcellulose) (HPC)
# [15] = dose: 25.0 mg/kg/injection, schedule: Q01DX009 (ip), vehicle: Klucel (hydroxypropylcellulose) (HPC)
# [16] = dose: 3.0 mg/kg/injection, schedule: Q01DX009 (ip), vehicle: Klucel (hydroxypropylcellulose) (HPC)
# [17] = dose: 6.0 mg/kg/injection, schedule: Q01DX009 (ip), vehicle: Klucel (hydroxypropylcellulose) (HPC)
smiles,measurement,setting,value
CCC(C)C(NC(=O)OCC1c2ccccc2-c2ccccc21)C(=O)O (stereo not drawn),T/C,"dose: 50.0 mg/kg/injection, schedule: Q01DX005 (ip), vehicle: Klucel (hydroxypropylcellulose) (HPC)",100 % of control
same,T/C,"dose: 100.0 mg/kg/injection, schedule: Q01DX005 (ip), vehicle: Klucel (hydroxypropylcellulose) (HPC)",100 % of control
same,T/C,"dose: 200.0 mg/kg/injection, schedule: Q01DX005 (ip), vehicle: Klucel (hydroxypropylcellulose) (HPC)",104 % of control
CN(C)CC(CN(C)C)C(=O)c1ccc(Cl)cc1,T/C,[1],107 % of control and 95 % of control and 96 % of control
same,T/C,[2],107 % of control and 115 % of control and 116 % of control
same,T/C,[3],107 % of control and 118 % of control and 124 % of control
same,T/C,[4],104 % of control and 113 % of control
CCCCCCNC(=O)C1C(=O)N(CCCCCC)C(=O)/C1=N\N=C(N)N (stereo not drawn),T/C,[5],109 % of control
same,T/C,[6],109 % of control
c1ccc2c(c1)Cc1c(-c3ccncc3)n[nH]c1-2,T/C,"dose: 25.0 mg/kg/injection, schedule: Q04DX003 (ip), vehicle: saline with Tween-80",100 % of control
same,T/C,[7],98 % of control
same,T/C,[8],94 % of control
same,T/C,[9],94 % of control
O=[N+]([O-])c1ccc(N/N=C\c2c(Cl)n(-c3ccccc3)c3ccccc23)cc1,T/C,[8],93 % of control
same,T/C,[9],90 % of control
same,T/C,[10],95 % of control
same,T/C,[11],91 % of control
Nc1ccccc1N1C(c2ccccc2)=CC(=O)N2CCN=C21,T/C,[12],90 % of control
same,T/C,[13],101 % of control
same,T/C,[14],95 % of control
NC(=NCCCC(NCc1ccccc1)C(=O)O)N[N+](=O)[O-] (stereo not drawn),T/C,"dose: 12.5 mg/kg/injection, schedule: Q01DX009 (ip), vehicle: Klucel (hydroxypropylcellulose) (HPC)",98 % of control
same,T/C,[15],99 % of control
same,T/C,[12],99 % of control and 100 % of control
same,T/C,[13],99 % of control and 100 % of control
same,T/C,[14],100 % of control and 96 % of control
same,T/C,"dose: 400.0 mg/kg/injection, schedule: Q01DX009 (ip), vehicle: Klucel (hydroxypropylcellulose) (HPC)",94 % of control
CN(C)CC/C=C1/c2ccccc2Sc2ccc(Cl)cc21,T/C,"dose: 6.25 mg/kg/injection, schedule: Q01DX005 (ip), vehicle: saline with Tween-80",104 % of control
same,T/C,"dose: 12.5 mg/kg/injection, schedule: Q01DX005 (ip), vehicle: saline with Tween-80",111 % of control
CCN(CC)P1(=O)C=C(C)C2C1C1C=C(C)C2P1(=O)N(CC)CC (stereo not drawn),T/C,"dose: 60.0 mg/kg/injection, schedule: Q01DX005 (ip), vehicle: saline",108 % of control
same,T/C,"dose: 120.0 mg/kg/injection, schedule: Q01DX005 (ip), vehicle: saline",101 % of control
same,T/C,"dose: 240.0 mg/kg/injection, schedule: Q01DX005 (ip), vehicle: saline",102 % of control
CC(C)(C)NC1=NCCNC(c2ccccc2)=C1,T/C,[1],98 % of control
same,T/C,[2],100 % of control
same,T/C,[3],92 % of control
O=C(Nc1ccc(NC(=O)c2ccc(C3=NCCCN3)cc2)cc1)Nc1ccc(C2=NCCCN2)cc1,T/C,"dose: 10.0 mg/kg/injection, schedule: Q01DX009 (ip), vehicle: saline with Tween-80",163 % of control
same,T/C,"dose: 10.0 mg/kg/injection, schedule: Q01DX009 (ip), vehicle: saline",113 % of control
same,T/C,"dose: 20.0 mg/kg/injection, schedule: Q01DX009 (ip), vehicle: saline",159 % of control
O=C(c1ccccc1)c1ccc[n+](Cc2ccccc2)c1,T/C,[3],100 % of control
same,T/C,[4],111 % of control
same,T/C,"dose: 100.0 mg/kg/injection, schedule: Q01DX005 (ip), vehicle: saline",109 % of control
C=C1C(=O)OC2/C=C(\C)C3OC3/C=C(/C(=O)OC)C(O)C(OC(=O)C3(C)OC3C)C12 (stereo not drawn),T/C,[16],115 % of control and 123 % of control
same,T/C,[17],120 % of control and 123 % of control
same,T/C,"dose: 12.0 mg/kg/injection, schedule: Q01DX009 (ip), vehicle: Klucel (hydroxypropylcellulose) (HPC)",119 % of control
same,T/C,"dose: 24.0 mg/kg/injection, schedule: Q01DX009 (ip), vehicle: Klucel (hydroxypropylcellulose) (HPC)",94 % of control
O=C(CCN1CC1)Nc1cccc(NC(=O)CCN2CC2)c1,T/C,"dose: 1.8 mg/kg/injection, schedule: Q01DX009 (ip), vehicle: Klucel (hydroxypropylcellulose) (HPC)",176 % of control
same,T/C,"dose: 2.5 mg/kg/injection, schedule: Q01DX009 (ip), vehicle: Klucel (hydroxypropylcellulose) (HPC)",158 % of control and 169 % of control and 185 % of control
same,T/C,[16],174 % of control
same,T/C,"dose: 5.0 mg/kg/injection, schedule: Q01DX009 (ip), vehicle: Klucel (hydroxypropylcellulose) (HPC)",167 % of control and 191 % of control and 209 % of control
same,T/C,[17],186 % of control
same,T/C,"dose: 15.0 mg/kg/injection, schedule: Q01DX009 (ip), vehicle: Klucel (hydroxypropylcellulose) (HPC)",88 % of control
same,T/C,"dose: 20.0 mg/kg/injection, schedule: Q01DX009 (ip), vehicle: Klucel (hydroxypropylcellulose) (HPC)",116 % of control
c1ccc2c(c1)/C(=N/c1nccs1)N/C2=N\c1nccs1,T/C,[8],97 % of control
same,T/C,[9],93 % of control
same,T/C,[11],91 % of control
Nc1ccc(-c2nc(N)c3[nH]cnc3n2)cc1,T/C,"dose: 12.5 mg/kg/injection, schedule: Q01DX005 (ip), vehicle: suspension in saline",97 % of control
same,T/C,"dose: 25.0 mg/kg/injection, schedule: Q01DX005 (ip), vehicle: suspension in saline",102 % of control
same,T/C,"dose: 50.0 mg/kg/injection, schedule: Q01DX005 (ip), vehicle: suspension in saline",100 % of control
same,T/C,"dose: 100.0 mg/kg/injection, schedule: Q01DX005 (ip), vehicle: suspension in saline",99 % of control
C=C1CC2(CCC3C4CC=C5CC(O)CCC5(C)C4CCC32C)OC1=O (stereo not drawn),T/C,"dose: 100.0 mg/kg/injection, schedule: Q04DX003 (ip), vehicle: Klucel (hydroxypropylcellulose) (HPC)",104 % of control
same,T/C,"dose: 200.0 mg/kg/injection, schedule: Q04DX003 (ip), vehicle: Klucel (hydroxypropylcellulose) (HPC)",105 % of control
same,T/C,"dose: 400.0 mg/kg/injection, schedule: Q04DX003 (ip), vehicle: Klucel (hydroxypropylcellulose) (HPC)",97 % of control
C=C1C(=O)O[C@@H]2[C@H]3C(C)=CC[C@H]3C(C)=CC[C@@H]12,T/C,"dose: 100.0 mg/kg/injection, schedule: Q01DX001 (ip), vehicle: saline",106 % of control
same,T/C,"dose: 200.0 mg/kg/injection, schedule: Q01DX001 (ip), vehicle: saline",103 % of control
same,T/C,[10],107 % of control
Cc1cc(=O)c2c(C)cccc2[nH]1,T/C,"dose: 2.75 mg/kg/injection, schedule: Q01DX009 (ip), vehicle: saline with Tween-80",100 % of control
same,T/C,"dose: 4.13 mg/kg/injection, schedule: Q01DX009 (ip), vehicle: saline with Tween-80",118 % of control
same,T/C,"dose: 6.25 mg/kg/injection, schedule: Q01DX009 (ip), vehicle: saline with Tween-80",100 % of control
same,T/C,"dose: 9.38 mg/kg/injection, schedule: Q01DX009 (ip), vehicle: saline with Tween-80",100 % of control
S=C([S-])N1CC[n+]2c(-c3ccccc3)csc21,T/C,"dose: 50.0 mg/kg/injection, schedule: Q01DX009 (ip), vehicle: saline",101 % of control
same,T/C,"dose: 100.0 mg/kg/injection, schedule: Q01DX009 (ip), vehicle: saline",100 % of control
same,T/C,"dose: 200.0 mg/kg/injection, schedule: Q01DX009 (ip), vehicle: saline",91 % of control
CCN(CC)[P+](c1cc(OC)ccc1OC)(N(CC)CC)N(CC)CC,T/C,"dose: 1.56 mg/kg/injection, schedule: Q01DX009 (ip), vehicle: Klucel (hydroxypropylcellulose) (HPC)",121 % of control
same,T/C,"dose: 3.13 mg/kg/injection, schedule: Q01DX009 (ip), vehicle: Klucel (hydroxypropylcellulose) (HPC)",106 % of control
same,T/C,[15],91 % of control
COc1ccc(C2COc3cc(O)c(O)cc3C2)cc1 (stereo not drawn),T/C,[5],97 % of control
same,T/C,[6],107 % of control
same,T/C,"dose: 240.0 mg/kg/injection, schedule: Q01DX005 (ip), vehicle: saline with Tween-80",97 % of control
OCc1c(Cl)nc2n1CCS2,T/C,"dose: 25.0 mg/kg/injection, schedule: Q01DX001 (ip), vehicle: saline with Tween-80",104 % of control
same,T/C,"dose: 50.0 mg/kg/injection, schedule: Q01DX001 (ip), vehicle: saline with Tween-80",104 % of control
CC(C)(C)N1CC(C(=O)c2ccccc2)C1c1ccccc1 (stereo not drawn),T/C,[7],100 % of control
same,T/C,[8],98 % of control
same,T/C,[9],97 % of control
same,T/C,[11],97 % of control
